Calls of active or inactive are those of the source. The calls are words filed in the database; no cut-off is given here.
Tests used:
Rattus norvegicus [1] = test: Antiinflammatory activity against carrageenan-induced paw edema in Wistar rat at 1.8 mg/kg, po; assay type: functional, organism-based; set-up: dose 1.8 mg/kg
Rattus norvegicus [2] = test: Antiinflammatory activity against carrageenan-induced paw edema in Wistar rat at 1.08 mg/kg, po; assay type: functional, organism-based; set-up: dose 1.08 mg/kg
Rattus norvegicus [3] = test: Antiinflammatory activity against carrageenan-induced paw edema in Wistar rat at 5 mg/kg, po; assay type: functional
Rattus norvegicus [4] = test: Antiinflammatory activity against carrageenan-induced paw edema in Wistar rat at 1.7 mg/kg, po; assay type: functional, organism-based; set-up: dose 1.7 mg/kg
Rattus norvegicus [5] = test: Antiinflammatory activity against carrageenan-induced paw edema in Wistar rat at 1.3 mg/kg, po; assay type: functional, organism-based; set-up: dose 1.3 mg/kg

## C[C@@]12CCC[C@H]1C1=C(CC2)[C@@]2(C)CC[C@H](O[C@@H]3O[C@H](CO[C@@H]4O[C@H](CO)[C@@H](O)[C@H](O)[C@H]4O)[C@@H](O)[C@H](O)[C@H]3O[C@@H]3O[C@H](CO)[C@H](O)[C@H](O)[C@H]3O)CC2CC1 (stereo not given in full)
Rattus norvegicus [1]
  Activity: inactive

## C[C@H]1CO[C@@]2(C)O[C@@H]3C([C@@]45CCC=C4C4=C(CC5)[C@@]5(C)CC[C@H](O[C@@H]6O[C@H](CO)[C@@H](O)[C@H](O)[C@H]6O[C@@H]6O[C@H](CO)[C@H](O)[C@H](O)[C@H]6O)CC5CC4)[C@@H](O)O[C@@H]3C12O (stereo not given in full)
Rattus norvegicus [2]
  Activity: inactive

## COc1ccc2c(c1)c(CC(=O)O)c(C)n2C(=O)c1ccc(Cl)cc1 [INDOMETHACIN]
Rattus norvegicus [3]
  inhibition in vivo at 5 mg/kg: 85%

## CC(=O)OC[C@H]1O[C@@H](O[C@H]2CC[C@]3(C)C4=C(CCC3C2)C2=CCC[C@@]2(C2[C@H]3O[C@]5(C)OC[C@H](C)C5(O)[C@H]3O[C@@H]2O)CC4)[C@H](O[C@@H]2O[C@H](CO)[C@H](O)[C@H](O)[C@H]2O)[C@@H](O)[C@@H]1O (stereo not given in full)
Rattus norvegicus [4]
  Activity: inactive

## C[C@@]12CCC[C@H]1C1=C(CC2)[C@@]2(C)CC[C@H](O[C@@H]3O[C@H](CO[C@@H]4O[C@H](CO)[C@@H](O)[C@H](O)[C@H]4O)[C@@H](O)[C@H](O)[C@H]3O)CC2CC1 (stereo not given in full)
Rattus norvegicus [5]
  Activity: inactive

From ChEMBL document CHEMBL1146499, “New compounds from an extract of Vernonia colorata leaves with anti-inflammatory activity” (2004)
